Where two headings read alike, the source gives them in different places.
Tests used:
BSEP = BSEP (Homo sapiens, UniProt O95342); assay: Inhibitor of BSEP; conditions: for potency estimated from few doses: human; for Inhibition of BSEP / Inhibitor of BSEP: two concentrations per test article
human hepatocytes = assay: Stability of test articles in hepatocyte cultures; conditions: two concentrations
OAT1 = target: T1, OAT1 (Homo sapiens, UniProt Q4U2R8); assay: Inhibitor of OAT1, probe substrate uptake; conditions: for Inhibition of OAT1 / Inhibitor of OAT1: two concentrations per test article; for potency estimated from few doses: read-out: Estimated IC50, OAT1
T1 sequence (Q4U2R8 1-563): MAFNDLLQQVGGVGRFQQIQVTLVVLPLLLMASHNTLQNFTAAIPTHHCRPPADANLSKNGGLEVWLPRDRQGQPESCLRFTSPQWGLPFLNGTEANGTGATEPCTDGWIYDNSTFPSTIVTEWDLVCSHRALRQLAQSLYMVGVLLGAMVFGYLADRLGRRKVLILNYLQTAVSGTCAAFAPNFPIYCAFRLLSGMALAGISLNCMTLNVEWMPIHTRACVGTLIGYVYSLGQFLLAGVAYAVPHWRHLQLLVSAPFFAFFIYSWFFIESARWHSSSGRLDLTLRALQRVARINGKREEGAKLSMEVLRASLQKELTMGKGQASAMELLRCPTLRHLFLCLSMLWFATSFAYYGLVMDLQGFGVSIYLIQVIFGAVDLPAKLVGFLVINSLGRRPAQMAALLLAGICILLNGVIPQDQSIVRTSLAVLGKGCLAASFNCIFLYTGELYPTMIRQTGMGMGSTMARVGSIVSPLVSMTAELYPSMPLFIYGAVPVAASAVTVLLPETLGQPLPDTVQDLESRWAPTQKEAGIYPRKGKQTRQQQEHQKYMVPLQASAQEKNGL

OATP1B1 = OATP1B1 (Homo sapiens, UniProt Q9Y6L6); assay: Substrate of OATP1B1, uptake in HEK293 cells
Source text: (§1) Vector-transfected HEK cells were used as a control.

CYP1A2 mRNA = assay: CYP1A2 gene expression induction in hepatocyte cultures; conditions: for Emax, CYP1A2 gene expression: Donor 1
BCRP = target: T2, BCRP (Homo sapiens, UniProt Q9UNQ0); assay: Inhibitor of BCRP, 3H-estrone-3-sulfate efflux in Caco-2 cells
T2 sequence (Q9UNQ0 1-655): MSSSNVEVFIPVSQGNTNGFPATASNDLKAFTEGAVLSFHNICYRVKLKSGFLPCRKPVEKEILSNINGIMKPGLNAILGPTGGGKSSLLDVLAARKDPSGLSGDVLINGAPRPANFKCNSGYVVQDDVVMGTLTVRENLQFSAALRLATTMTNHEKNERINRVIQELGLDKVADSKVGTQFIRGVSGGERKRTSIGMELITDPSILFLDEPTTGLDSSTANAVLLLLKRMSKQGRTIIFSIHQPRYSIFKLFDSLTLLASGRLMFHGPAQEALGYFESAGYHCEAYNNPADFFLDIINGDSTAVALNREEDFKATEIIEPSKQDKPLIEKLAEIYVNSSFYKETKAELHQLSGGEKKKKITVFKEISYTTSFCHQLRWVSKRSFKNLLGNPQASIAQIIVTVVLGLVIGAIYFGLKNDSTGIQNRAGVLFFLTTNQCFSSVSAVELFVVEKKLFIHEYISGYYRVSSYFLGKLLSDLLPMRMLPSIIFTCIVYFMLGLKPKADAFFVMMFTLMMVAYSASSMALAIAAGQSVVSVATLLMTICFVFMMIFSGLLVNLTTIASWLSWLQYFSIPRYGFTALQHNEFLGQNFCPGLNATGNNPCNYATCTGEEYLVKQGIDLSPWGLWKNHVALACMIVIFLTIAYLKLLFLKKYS

P-gp = P-gp (Homo sapiens, UniProt P08183); assay: Inhibitor of P-gp, 3H-digoxin efflux in Caco-2 cells; conditions: for potency estimated from few doses: read-out: Estimated IC50, P-gp
MATE2K = MATE2K (Homo sapiens, UniProt Q86VL8); assay: Substrate of MATE2-K, uptake in HEK293 cells
Source text: as §1

MATE1 = target: T3, MATE1 (Homo sapiens, UniProt Q96FL8); assay: Substrate of MATE1, uptake in HEK293 cells
T3 sequence (Q96FL8 1-570): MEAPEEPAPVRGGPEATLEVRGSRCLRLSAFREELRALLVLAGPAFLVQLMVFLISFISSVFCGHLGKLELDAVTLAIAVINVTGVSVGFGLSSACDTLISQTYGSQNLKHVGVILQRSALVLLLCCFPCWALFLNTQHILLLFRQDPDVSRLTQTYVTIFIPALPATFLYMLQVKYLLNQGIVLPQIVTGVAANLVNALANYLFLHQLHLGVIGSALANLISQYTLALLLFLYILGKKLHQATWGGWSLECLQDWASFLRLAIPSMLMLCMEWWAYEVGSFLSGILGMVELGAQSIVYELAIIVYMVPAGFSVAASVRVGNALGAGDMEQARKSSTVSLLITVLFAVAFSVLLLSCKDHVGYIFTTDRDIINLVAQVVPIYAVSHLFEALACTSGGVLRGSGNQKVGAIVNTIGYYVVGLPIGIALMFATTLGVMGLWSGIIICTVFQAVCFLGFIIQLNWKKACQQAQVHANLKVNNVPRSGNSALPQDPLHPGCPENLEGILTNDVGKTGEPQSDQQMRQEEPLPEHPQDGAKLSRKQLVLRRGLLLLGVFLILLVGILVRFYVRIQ
Source text: as §1

[1] = Caco-2, two concentrations per test article
[2] = two concentrations per test article, Caco-2 cells
[3] = estimated from two concentrations, Caco-2 cells
[4] = estimated from two concentrations
[5] = higher test concentration (UDCA: second assay)
[6] = lower test concentration (UDCA: second assay)

P-gp, sequence (P08183 whole entry): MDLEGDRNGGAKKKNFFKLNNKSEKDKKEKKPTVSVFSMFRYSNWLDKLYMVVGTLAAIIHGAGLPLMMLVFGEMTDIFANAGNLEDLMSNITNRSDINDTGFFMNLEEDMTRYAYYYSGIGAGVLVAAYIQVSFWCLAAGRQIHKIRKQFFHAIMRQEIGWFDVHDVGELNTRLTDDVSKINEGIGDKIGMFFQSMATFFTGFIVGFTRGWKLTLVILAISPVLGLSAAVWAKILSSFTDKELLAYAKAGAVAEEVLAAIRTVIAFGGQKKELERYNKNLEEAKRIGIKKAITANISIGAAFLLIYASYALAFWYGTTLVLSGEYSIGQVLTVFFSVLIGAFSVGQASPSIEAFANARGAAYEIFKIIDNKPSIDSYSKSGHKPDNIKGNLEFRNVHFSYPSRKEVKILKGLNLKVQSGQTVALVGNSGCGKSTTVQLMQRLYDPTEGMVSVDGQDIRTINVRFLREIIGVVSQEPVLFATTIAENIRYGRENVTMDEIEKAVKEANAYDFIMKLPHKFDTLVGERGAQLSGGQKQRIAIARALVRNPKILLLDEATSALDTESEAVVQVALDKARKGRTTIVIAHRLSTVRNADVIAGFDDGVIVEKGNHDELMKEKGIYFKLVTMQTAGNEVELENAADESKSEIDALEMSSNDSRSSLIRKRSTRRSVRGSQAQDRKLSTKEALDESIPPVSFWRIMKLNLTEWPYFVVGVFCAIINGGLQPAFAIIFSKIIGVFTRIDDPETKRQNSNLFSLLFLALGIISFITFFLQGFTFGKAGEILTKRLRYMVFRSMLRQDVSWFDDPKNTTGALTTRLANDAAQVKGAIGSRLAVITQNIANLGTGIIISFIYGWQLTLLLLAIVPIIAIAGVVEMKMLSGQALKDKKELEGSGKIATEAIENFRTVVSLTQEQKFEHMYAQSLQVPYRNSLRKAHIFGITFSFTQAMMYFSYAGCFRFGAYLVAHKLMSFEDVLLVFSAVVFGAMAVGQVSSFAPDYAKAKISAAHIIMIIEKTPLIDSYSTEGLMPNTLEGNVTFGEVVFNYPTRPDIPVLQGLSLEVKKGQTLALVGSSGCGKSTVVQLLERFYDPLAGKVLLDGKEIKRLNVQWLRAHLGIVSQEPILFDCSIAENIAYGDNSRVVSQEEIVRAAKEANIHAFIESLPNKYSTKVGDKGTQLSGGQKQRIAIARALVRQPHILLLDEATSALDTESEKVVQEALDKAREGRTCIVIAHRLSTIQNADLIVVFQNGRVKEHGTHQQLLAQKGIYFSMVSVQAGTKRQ
BSEP, sequence (O95342 whole entry): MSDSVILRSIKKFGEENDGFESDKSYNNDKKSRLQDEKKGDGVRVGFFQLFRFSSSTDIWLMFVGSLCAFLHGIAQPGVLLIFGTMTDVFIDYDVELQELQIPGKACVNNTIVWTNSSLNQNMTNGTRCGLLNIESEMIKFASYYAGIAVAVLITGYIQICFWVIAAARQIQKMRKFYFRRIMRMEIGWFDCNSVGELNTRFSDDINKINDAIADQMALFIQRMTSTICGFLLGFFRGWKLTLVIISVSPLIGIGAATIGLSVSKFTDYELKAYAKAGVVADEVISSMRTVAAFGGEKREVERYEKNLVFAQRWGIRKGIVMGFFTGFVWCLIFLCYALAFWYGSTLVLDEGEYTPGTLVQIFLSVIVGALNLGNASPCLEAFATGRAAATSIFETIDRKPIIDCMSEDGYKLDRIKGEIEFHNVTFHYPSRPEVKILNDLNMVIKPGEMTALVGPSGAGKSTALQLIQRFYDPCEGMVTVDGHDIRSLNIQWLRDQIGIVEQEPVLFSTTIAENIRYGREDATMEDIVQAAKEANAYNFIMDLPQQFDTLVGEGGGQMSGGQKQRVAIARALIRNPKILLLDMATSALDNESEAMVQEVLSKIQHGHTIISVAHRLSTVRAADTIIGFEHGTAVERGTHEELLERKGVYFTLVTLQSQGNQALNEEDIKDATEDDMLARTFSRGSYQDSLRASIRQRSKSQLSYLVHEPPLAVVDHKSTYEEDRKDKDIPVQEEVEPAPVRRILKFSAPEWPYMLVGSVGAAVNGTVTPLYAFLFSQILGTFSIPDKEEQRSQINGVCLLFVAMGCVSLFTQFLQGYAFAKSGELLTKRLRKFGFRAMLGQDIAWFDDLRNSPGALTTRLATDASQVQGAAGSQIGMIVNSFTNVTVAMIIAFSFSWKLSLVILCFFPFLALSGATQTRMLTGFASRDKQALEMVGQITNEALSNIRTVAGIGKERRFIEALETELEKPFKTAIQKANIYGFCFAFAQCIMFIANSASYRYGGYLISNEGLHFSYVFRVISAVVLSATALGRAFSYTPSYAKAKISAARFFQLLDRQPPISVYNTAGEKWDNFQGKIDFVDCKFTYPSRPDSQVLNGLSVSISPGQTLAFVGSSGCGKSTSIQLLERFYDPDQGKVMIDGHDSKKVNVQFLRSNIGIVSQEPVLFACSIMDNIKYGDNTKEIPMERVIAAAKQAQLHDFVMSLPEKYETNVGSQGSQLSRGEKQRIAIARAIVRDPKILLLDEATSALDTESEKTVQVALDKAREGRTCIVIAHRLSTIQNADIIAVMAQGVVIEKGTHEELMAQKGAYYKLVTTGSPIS
MATE2K, sequence (Q86VL8 1-566 isoform Q86VL8-3): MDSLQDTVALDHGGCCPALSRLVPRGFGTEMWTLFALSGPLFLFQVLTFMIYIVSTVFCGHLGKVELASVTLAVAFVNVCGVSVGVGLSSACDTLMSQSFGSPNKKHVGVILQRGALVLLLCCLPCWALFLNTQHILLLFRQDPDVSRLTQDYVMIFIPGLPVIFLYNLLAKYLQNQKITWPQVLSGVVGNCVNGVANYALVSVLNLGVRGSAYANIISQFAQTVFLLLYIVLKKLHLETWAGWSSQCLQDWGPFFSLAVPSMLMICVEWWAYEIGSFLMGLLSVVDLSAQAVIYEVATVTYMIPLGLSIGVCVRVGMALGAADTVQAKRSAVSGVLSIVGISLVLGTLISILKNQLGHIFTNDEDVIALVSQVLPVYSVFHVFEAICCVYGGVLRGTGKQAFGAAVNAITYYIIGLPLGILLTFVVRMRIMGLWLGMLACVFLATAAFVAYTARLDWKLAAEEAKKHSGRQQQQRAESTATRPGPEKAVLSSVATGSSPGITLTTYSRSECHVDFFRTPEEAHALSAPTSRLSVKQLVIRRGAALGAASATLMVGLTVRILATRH
OATP1B1, sequence (Q9Y6L6 whole entry): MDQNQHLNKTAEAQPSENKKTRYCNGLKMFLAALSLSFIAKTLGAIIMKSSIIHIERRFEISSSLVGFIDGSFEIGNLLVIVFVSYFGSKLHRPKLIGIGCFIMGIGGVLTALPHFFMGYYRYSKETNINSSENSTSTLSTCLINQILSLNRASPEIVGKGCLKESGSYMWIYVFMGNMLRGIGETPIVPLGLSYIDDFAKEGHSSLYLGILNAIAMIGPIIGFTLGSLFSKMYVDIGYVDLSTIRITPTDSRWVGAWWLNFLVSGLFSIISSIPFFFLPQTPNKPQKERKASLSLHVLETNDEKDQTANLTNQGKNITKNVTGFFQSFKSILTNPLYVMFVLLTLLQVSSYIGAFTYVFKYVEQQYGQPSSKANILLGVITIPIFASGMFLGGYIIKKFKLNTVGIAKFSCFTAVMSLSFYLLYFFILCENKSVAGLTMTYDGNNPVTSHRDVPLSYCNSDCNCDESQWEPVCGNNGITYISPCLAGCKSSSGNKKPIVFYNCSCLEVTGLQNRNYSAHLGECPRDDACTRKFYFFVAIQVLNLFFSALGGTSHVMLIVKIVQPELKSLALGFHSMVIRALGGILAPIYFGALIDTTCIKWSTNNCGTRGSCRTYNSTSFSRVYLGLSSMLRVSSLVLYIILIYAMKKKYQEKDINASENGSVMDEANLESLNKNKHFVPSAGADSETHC

C[C@H](CCC(=O)NCC(=O)O)[C@H]1CC[C@H]2[C@@H]3[C@@H](O)C[C@@H]4C[C@H](O)CC[C@]4(C)[C@H]3CC[C@]12C [Glycoursodeoxycholic acid, glycoursodeoxycholic acid]
potency estimated from few doses (BSEP): < 10 µM
Inhibition of BSEP (BSEP): inhibited
Inhibitor of BSEP (BSEP): Yes
% of time zero remaining in hepatocyte cultures (human hepatocytes; 1 hour): ≤ 88.8%
% of time zero remaining in hepatocyte cultures (human hepatocytes; 4 hours): ≤ 75.4%
% of time zero remaining in hepatocyte cultures (human hepatocytes; 24 hours): ≤ 34.7%
Inhibition of OAT1 (OAT1): did not inhibit
Inhibitor of OAT1 (OAT1): No
Fold uptake by OATP1B1 over vector control (OATP1B1; human, 5 min, 10 μM): 7.56 fold
Fold uptake by OATP1B1 over vector control with known inhibitors (OATP1B1; human, 5 min, 10 μM): 1.80 fold
Emax, CYP1A2 gene expression (CYP1A2 mRNA): 11.7 fold
Maximum fold induction of CYP1A2 gene expression (CYP1A2 mRNA; Donor 2): 13.0 fold
Maximum fold induction of CYP1A2 gene expression (CYP1A2 mRNA; Donor 3): 7.83 fold
Inducer of CYP1A2 (conclusion) (CYP1A2 mRNA; gene expression and enzyme activity, three donors): as an inducer
Inhibitor of BCRP (BCRP; [1]): identified as an inhibitor
potency estimated from few doses (BCRP; read-out: Estimated IC50, BCRP, estimated from two concentrations, Caco-2 cells): > 100 µM
Inhibitor of BCRP (BCRP; [2]): Yes
Inhibitor of P-gp (P-gp; [1]): identified as an inhibitor
potency estimated from few doses (P-gp; [3]): < 10 µM
Inhibitor of P-gp (P-gp; [2]): Yes

O=C(O)CCCc1ccccc1 [PB, sodium phenylbutyrate]
Inhibition of BSEP (BSEP): did not inhibit
Inhibitor of BSEP (BSEP): No
% of time zero remaining in hepatocyte cultures (human hepatocytes; 1 hour): ≤ 84.0%
% of time zero remaining in hepatocyte cultures (human hepatocytes; 4 hours): ≤ 60.7%
% of time zero remaining in hepatocyte cultures (human hepatocytes; 24 hours): 0%
Uptake activity remaining, OAT1 (OAT1; 25 μM): 21.1%
potency estimated from few doses (OAT1; [4]): < 25 µM
Inhibition of OAT1 (OAT1): inhibited
Inhibitor of OAT1 (OAT1): Yes
Inhibitor of BCRP (BCRP; [1]): not an inhibitor
Remaining BCRP activity, % of the control (BCRP; [5]): 84.7%
Remaining BCRP activity, % of the control (BCRP; [6]): 125%
Inhibitor of BCRP (BCRP; [2]): No
Decrease of MATE2-K uptake by known inhibitor (MATE2K; human, 2 min): > 25%
Uptake in MATE2-K cells (MATE2K; human, 2 min): 27.5 pmol/minute/mg protein
Inhibitor of P-gp (P-gp; [1]): not an inhibitor
Remaining P-gp activity, % of the control (P-gp; higher test concentration): 106%
Remaining P-gp activity, % of the control (P-gp; lower test concentration): 93.5%
Inhibitor of P-gp (P-gp; [2]): No

O=C(O)Cc1ccccc1 [Phenylacetic acid, phenylacetic acid]
potency estimated from few doses (BSEP): < 7500 µM
Inhibition of BSEP (BSEP): inhibited
Inhibitor of BSEP (BSEP): Yes
% of time zero remaining in hepatocyte cultures (human hepatocytes; 4 hours): ≤ 75.9%
% of time zero remaining in hepatocyte cultures (human hepatocytes; 24 hours): ≤ 2.31%
Uptake activity remaining, OAT1 (OAT1; 750 μM): 35.2%
potency estimated from few doses (OAT1; [4]): < 750 µM
Inhibition of OAT1 (OAT1): inhibited
Inhibitor of OAT1 (OAT1): Yes
Substrate of OATP1B1 (OATP1B1; 1 and 10 μM): not a substrate
Substrate of OATP1B1 (OATP1B1; test article 1 and 10 μM): No
Emax, CYP1A2 gene expression (CYP1A2 mRNA): 3.32 fold
Inhibitor of BCRP (BCRP; [1]): not an inhibitor
Remaining BCRP activity, % of the control (BCRP; [5]): 199%
Remaining BCRP activity, % of the control (BCRP; [6]): 162%
Inhibitor of BCRP (BCRP; [2]): No
Net MATE2-K uptake remaining with inhibitor (MATE2K; 10 μM): 64.1%
Uptake in MATE2-K cells (MATE2K; 10 μM): 84.2 pmol/min/mg
Substrate of MATE2-K (MATE2K; 1 and 10 μM): identified as a substrate
Substrate of MATE2-K (MATE2K; test article 1 and 10 μM): Yes
Inhibitor of P-gp (P-gp; [1]): weak inhibitor
Remaining P-gp activity, % of the control (P-gp; higher test concentration): 75.6%
Remaining P-gp activity, % of the control (P-gp; lower test concentration): 85.9%
potency estimated from few doses (P-gp; [3]): > 7500 µM
Inhibitor of P-gp (P-gp; [2]): Yes
Substrate of MATE1 (MATE1; 1 and 10 μM): not a substrate
Substrate of MATE1 (MATE1; test article 1 and 10 μM): No^a

ursodeoxycholic acid
% of time zero remaining in hepatocyte cultures (human hepatocytes; 1 hour): ≤ 93.1%
% of time zero remaining in hepatocyte cultures (human hepatocytes; 4 hours): ≤ 61.0%
% of time zero remaining in hepatocyte cultures (human hepatocytes; 24 hours): ≤ 2.35%
potency estimated from few doses (OAT1; [4]): < 500 µM
potency estimated from few doses (OAT1; estimated from two doses): < 500 µM
Inhibition of OAT1 (OAT1): inhibited
Inhibitor of OAT1 (OAT1): Yes
Substrate of OATP1B1 (OATP1B1; 1 and 10 μM): not a substrate
Substrate of OATP1B1 (OATP1B1; test article 1 and 10 μM): No
Inhibitor of BCRP (BCRP; [1]): not an inhibitor
BCRP activity, % of the control (BCRP; first assay, 500 μM): 130%
Remaining BCRP activity, % of the control (BCRP; [5]): 155%
Remaining BCRP activity, % of the control (BCRP; [6]): 228%
Inhibitor of BCRP (BCRP; [2]): No
Substrate of MATE2-K (MATE2K; 1 and 10 μM): not a substrate
Substrate of MATE2-K (MATE2K; test article 1 and 10 μM): No
Inhibitor of P-gp (P-gp; [1]): identified as an inhibitor
Remaining P-gp activity, % of the control (P-gp; higher test concentration): 13.0%
Remaining P-gp activity, % of the control (P-gp; lower test concentration): 348%
potency estimated from few doses (P-gp; Caco-2, estimated from two doses): < 500 µM
potency estimated from few doses (P-gp; [3]): < 500 µM
Inhibitor of P-gp (P-gp; [2]): Yes^a
Substrate of MATE1 (MATE1; 1 and 10 μM): not a substrate
Substrate of MATE1 (MATE1; test article 1 and 10 μM): No
